Like-named read-outs stand apart in the source and are kept apart here.

Results on seven molecules are retold here after publication PMC10384408, “Anticancer Tungstenocenes with a Diverse Set of (O,O–), (O,S–) and (O,N–) Chelates—A Detailed Biological Study Using an Improved Evaluation via 3D Spheroid Models” (Pharmaceutics, 2023).

Data set [1] has as its system A549 (non-small cell lung carcinoma) cells. The experiment in a line: MTT cytotoxicity assay, A549 monolayer. The class given is cell-based, human. The protocol:
(§1) CH1/PA-1 (ovarian teratocarcinoma), SW480 (colon carcinoma) and A549 (non-small cell lung cancer) cells were maintained as described in the reference. IMR-90 human fetal lung fibroblasts (from the European Collection of Authenticated Cell Cultures, Porton Down, Salisbury, UK) were cultured in Stable Cell^TM DMEM/F12 supplemented with 0.01 mg/mL human recombinant insulin (both purchased from Sigma-Aldrich) and 10% fetal bovine serum (FBS, BioWest, Nuaillé, France). Human colon carcinoma cell lines HCT116 and HT29 (both kindly provided by the Institute of Cancer Research, Department of Medicine I, Medical University of Vienna, Austria) were cultured in McCoy’s 5a medium supplemented with 4 mM L-glutamine (both purchased from Sigma-Aldrich) and 10% FBS. MCF-7 human breast adenocarcinoma cells (kindly provided by M. Ogris, Department of Pharmaceutical Sciences, University of Vienna, Austria) were maintained in DMEM (high glucose) supplemented with 4 mM L-glutamine, 0.1 mg/mL human insulin (all purchased from Sigma-Aldrich) and 10% FBS. All cell lines were grown as monolayers in 75 cm^2 culture flasks (CytoOne, Starlab, Hamburg, Germany) at 37 °C in a humidified atmosphere containing 5% CO2.
(§2) Exponentially growing cells were plated into 96-well microculture plates (CytoOne, tissue culture treated, Starlab, Hamburg, Germany) in densities of 1 × 10^3 CH1/PA-1, 2 × 10^3 SW480, 3 × 10^3 A549 and 7 × 10^3 IMR-90 cells per well (each in 100 µL). After a 24 h preincubation, drugs were added in serial dilution to give a final volume of 200 µL/well and exposed for 96 h. At the end of the exposure, the drug solutions were replaced by 100 µL RPMI 1640/MTT mixture (7:1 ratio). MTT (3-(4,5-dimethylthiazol-2-yl)-2,5-diphenyl-2H-tetrazolium bromide), (Acros Organics, Geel, Belgium) solution was prepared in phosphate-buffered saline (5 mg/mL) and mixed with RPMI1640 medium supplemented with 4 mM L-glutamine (both from Sigma-Aldrich) and 10% FBS. After 4 h incubation, the formazan crystals were solubilized in 150 µL of DMSO per well. Absorbance was measured at 550 nm (and at 690 nm as a reference) with a microplate reader (ELx808, BioTek, Winoosky, VT, USA) and Gen5^TM 3.08 software (BioTek). The 50% inhibitory concentrations (IC50) relative to untreated controls were interpolated from concentration-effect curves. At least three biologically and technically independent experiments were performed.
For orientation: Tetrazolium dyes change colour on reduction, which living cells bring about.

In data set [2] the test system is SW480 (colon carcinoma) cells. The experiment in a line: MTT cytotoxicity assay, SW480 monolayer. The class given is cell-based, human. As for the experimental part: as §1, §2
For data set [3], the system named is CH1/PA-1 (ovarian teratocarcinoma) cells. The experiment in a line: MTT cytotoxicity assay, CH1/PA-1 monolayer. Particulars: exposure time 96 h, mean ± SD. It is filed as cell-based, human. As for the experimental part: as §1, §2
Data set [4] can be described thus: Solubility in PBS (1% DMSO). It is filed as physicochemical. The protocol: Stock solutions in DMSO of compounds 1–10 were utilized to determine the solubility in PBS by adding 1 vol% of the stock solution to a suitable amount of PBS. […] UV/Vis data were recorded on a Perkin Elmer Lambda 650 UV/Vis Spectrophotometer with a Peltier element for temperature control.

Data set [5] can be described thus: Cyclic voltammetry in MeCN (W(IV) to W(V)). It is filed as physicochemical. Particulars: vs. NHE, scan rate 200 mV/s. The protocol: NMR spectra were recorded with a Bruker FT-NMR Avance III^TM 500 MHz spectrometer at 500.10 (^1H), and 125.75 MHz (^13C) using DMSO–d6. 2D-NMR measurements were recorded utilizing standard pulse programs COSY, HSQC and HMBC. The Microanalytical Laboratory of the University of Vienna performed the elemental analyses with a Eurovector EA 3000(2009) equipped with a high temperature pyrolysis furnace (HT, Hekatech, Germany, 2009). Elemental analyses’ samples were weighed (weights from 1–3 mg were used) on a Sartorius SEC 2 ultra-micro balance with ±0.1 µg resolution. Two NIST-certified reference materials were used for calibration: sulfanilamide (C6H8N2O2S) and BBOT (2,5-bis-(5-tert-butyl-2-benzoxazol-2-yl)-thiophenone, C26H26N2O2S). The limit of quantification (LOQ) was 0.05 w% for C, H, N and 0.02 w% for S. For samples without N and/or S, the content of these elements was determined and verified to be below the LOQ. X-ray diffraction analyses were carried out on a Bruker X8 APEX II CCD diffractometer at 100 K. ESI-MS were recorded on a Bruker AmaZon SL ion trap mass spectrometer (Bruker Daltonics GmbH). Data were obtained and processed with Compass 1.3 and Data Analysis 4.0 (Bruker Daltonics GmbH). Infrared spectra were attained on a Bruker Vertex 70 FT-IR-spectrometer with an ATR-unit (attenuated total reflection unit) in the range of 4000–600 cm^−1. Intensities of the reported bands are described with w for weak, m for medium and s for strong; broad signals are additionally specified with the letter b in front of these abbreviations. Cyclic voltammograms (CVs) were measured in a three-electrode cell using 2 mm diameter glassy carbon disk working electrode, a platinum auxiliary electrode and an Ag|Ag^+ reference electrode containing 0.1 M AgNO3. Measurements were carried out at room temperature using an EG&G PARC potentiostat/galvanostat 273A. The solutions were deoxygenized by purging a stream of argon for 3 min through the solution and the experiment was performed under an argon atmosphere. The potentials were measured in a freshly prepared solution of (n Bu4N)[BF4] (0.1 M) in acetonitrile using ferrocene (Fe(η^5-C5H5)2) (E1/2 = +0.72 V vs. NHE) as an internal standard and are quoted relative to the normal hydrogen electrode (NHE).
The electrochemical behavior of all complexes and the precursor Cp2WCl2 was studied by cyclic voltammetry with a scan rate of 200 mV/s, from −0.5 to +1.2 or +1.5 V. Measurements were performed in triplicate. Due to low water solubility of compounds 1–10 acetonitrile (MeCN) was utilized in order to reach the 2 mM concentration.

Data set [6] relates to A549 (non-small cell lung carcinoma) cells. Particulars: MTT assay, 96 h; cited from earlier work.
Data set [7] relates to SW480 (colon carcinoma) cells. As to conditions: MTT assay, 96 h; cited from earlier work.
Data set [8] relates to CH1/PA-1 (ovarian teratocarcinoma) cells. Particulars: MTT assay, 96 h; cited from earlier work.

Consider `Cc1occc(=O)c1[O-].F[P-](F)(F)(F)(F)F.[W+4].c1cc[cH-]c1.c1cc[cH-]c1` [Compound 1, Bis(η^5-cyclopentadienyl)[2-methyl-3-(oxo-κO)-4-(1H)-pyran-4-ato-κO]tungsten(IV) hexafluorophosphate], for which the “activity in A549” value in data set [1] (96 h) is on record as “no activity was observed”. The IC50 in data set [1] (exposure time 96 h, mean ± SD) was above 200 µM; in data set [2] (exposure time 96 h, mean ± SD) it was above 200 µM; in data set [3], 85 ± 41 µM. In addition, in data set [2] (96 h), the “activity in SW480” value is “no activity was observed”. Further, the “Solubility in PBS (1% DMSO)” value in data set [4] stood at 0.23 mg/mL. The E1/2 in data set [5] is 1.037 V.
For `[Cl-].[Cl-].[Mo+4].c1cc[cH-]c1.c1cc[cH-]c1` [Cp2MoCl2, Molybdenocene dichloride], the IC50 in data set [6], in data set [7] and in data set [8] was above 200 µM each time.
With `Cc1occc(=O)c1[O-].F[P-](F)(F)(F)(F)F.[Mo+4].c1cc[cH-]c1.c1cc[cH-]c1` [[Cp2Mo(L1)]PF6], the IC50 in data set [6], in data set [7] and in data set [8] was above 200 µM in each case.
Take `Cc1occc(=S)c1[O-].F[P-](F)(F)(F)(F)F.[Mo+4].c1cc[cH-]c1.c1cc[cH-]c1` [[Cp2Mo(L2)]PF6]: the IC50 in data set [6] is 106 ± 15 µM; in data set [7], 55 ± 9 µM; in data set [8], 29 ± 10 µM.
Consider `F[P-](F)(F)(F)(F)F.O=c1c([O-])c(-c2ccc(Cl)cc2)oc2ccccc12.[Mo+4].c1cc[cH-]c1.c1cc[cH-]c1` [[Cp2Mo(L3)]PF6], for which the values for the IC50 in data set [6], in data set [7] and in data set [8] were 24 ± 4 µM, 5.6 ± 0.2 µM and 1.7 ± 0.4 µM, respectively.
`F[P-](F)(F)(F)(F)F.[Mo+4].[O-]c1c(-c2ccc(Cl)cc2)oc2ccccc2c1=S.c1cc[cH-]c1.c1cc[cH-]c1` [[Cp2Mo(L4)]PF6]: the IC50 in data set [6] was 5.7 ± 1 µM; in data set [7], 1.6 ± 0.2 µM; in data set [8], 0.72 ± 0.13 µM.
Take `F[P-](F)(F)(F)(F)F.O=C([O-])c1ccccn1.[Mo+4].c1cc[cH-]c1.c1cc[cH-]c1` [[Cp2Mo(L5)]PF6]: the IC50 in data set [6], in data set [7] and in data set [8] was above 200 µM in each case.

For orientation: IC50 means the concentration at which inhibition is half-maximal.
